Laboratory results reported in patent US20250154226A1, “LONG-ACTING GLP-1/GLP-2 DUAL AGONIST COMPOUND” (CHENGDU AODA BIOTECHNOLOGY CO., LTD, priority 2022, published 2025).
Starred links: 1 amine or outer side, 2 acyl side, 3 side chain; linkers in the order of their positions; H or OH if unused. Non-standard residues stand in square brackets, D forms with d. Residues, ends and D or L forms follow the SMILES beside them. Groups on a side chain read outwards from the residue. *: point of attachment. C18 diacid = O=C(O)CCCCCCCCCCCCCCCCC(=O)*; γGlu = O=C(O)[C@H](CCC(=O)[*:2])N[*:1]; AEEEA = NCCOCCOCCOCC(=O)O; AEEA = NCCOCCOCC(=O)O; Aib = CC(C)(N)C(=O)O

Legend:
[1] = Preliminary determination of pharmacokinetic properties in cynomolgus monkeys; assay type: in vivo; conditions: cynomolgus monkey; male cynomolgus monkeys; subcutaneous (SC) 0.1 mg/kg; plasma, LC-MS
Description: The test animals were cynomolgus monkeys, two male cynomolgus monkeys in each compound group, and the drug was subcutaneously administered at 0.1 mg/kg. The blood was collected intravenously before (0 h) the administration, and 1 h, 2 h, 3 h, 4 h, 8 h, 12 h, 18 h, 24 h, 48 h, 96 h, 144 h, and 168 h after the administration of the compounds, and then centrifuged to isolate plasma samples.

[2] = target: T1, GLP-2R (Homo sapiens, UniProt O95838); assay: Determination of GLP-2 activity: cAMP chemiluminescence (RLU) in CHO-K1 cell line stably expressing GLP-2R; assay type: cell-based; conditions: read-out: GLP-2 activity [EC50 (nmol)]
T1 construct: expressed in transfected cells; host or cells: CHO-K1
T1 sequence (O95838 1-553): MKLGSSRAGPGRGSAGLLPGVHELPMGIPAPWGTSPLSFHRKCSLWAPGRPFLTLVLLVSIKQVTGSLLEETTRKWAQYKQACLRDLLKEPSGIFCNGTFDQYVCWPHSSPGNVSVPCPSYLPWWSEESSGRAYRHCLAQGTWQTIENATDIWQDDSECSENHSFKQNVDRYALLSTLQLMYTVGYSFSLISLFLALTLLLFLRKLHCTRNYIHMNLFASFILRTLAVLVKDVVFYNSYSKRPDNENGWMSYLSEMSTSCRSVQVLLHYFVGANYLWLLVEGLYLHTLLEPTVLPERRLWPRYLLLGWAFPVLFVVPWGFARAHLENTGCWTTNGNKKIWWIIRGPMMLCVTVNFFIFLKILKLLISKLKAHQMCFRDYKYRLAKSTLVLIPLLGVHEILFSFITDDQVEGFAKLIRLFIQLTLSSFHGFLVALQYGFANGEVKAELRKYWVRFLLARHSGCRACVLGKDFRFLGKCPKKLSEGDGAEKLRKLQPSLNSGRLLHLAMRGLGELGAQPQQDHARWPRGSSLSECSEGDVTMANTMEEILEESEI
Description: (§1) GLP-2R, under the stimulation of its specific agonist, can activate the intracellular adenylate cyclase pathway, and increase the level of cAMP, finally leading to the generation and release of insulin. The stimulation of the cell lines stably transfected with […] by the agonist to be tested can lead to rapid increase in the intracellular cAMP level, and the relative light units (RLUs) after stimulating the cells at each dose are determined by chemiluminescence method to calculate the EC50 of the agonist. This method for determining activity is commonly used for GLP-2 receptor agonist activity analysis at home and abroad.
CHO-K1 cell line stably expressing GLP-2R was stimulated with the agonist at different concentrations. The EC50 value of the agonist was calculated by determining the relative light units after stimulating the cells at each dose.

[3] = target: T2, GLP-1R (Homo sapiens, UniProt P43220); assay: Determination of GLP-1 activity: cAMP chemiluminescence (RLU) in CHO-K1 cell line stably expressing GLP-1R; assay type: cell-based; conditions: read-out: GLP-1 activity [EC50 (pmol)]
T2 construct: expressed in transfected cells; host or cells: CHO-K1
Description: as §1, with “GLP-1R,” for “GLP-2R,”, “GLP-1” for “GLP-2”
CHO-K1 cell line stably expressing GLP-1R was stimulated with the agonist at different concentrations. The EC50 value of the agonist was calculated by determining the relative light units after stimulating the cells at each dose.

T2 sequence (P43220 24-463, species assumed): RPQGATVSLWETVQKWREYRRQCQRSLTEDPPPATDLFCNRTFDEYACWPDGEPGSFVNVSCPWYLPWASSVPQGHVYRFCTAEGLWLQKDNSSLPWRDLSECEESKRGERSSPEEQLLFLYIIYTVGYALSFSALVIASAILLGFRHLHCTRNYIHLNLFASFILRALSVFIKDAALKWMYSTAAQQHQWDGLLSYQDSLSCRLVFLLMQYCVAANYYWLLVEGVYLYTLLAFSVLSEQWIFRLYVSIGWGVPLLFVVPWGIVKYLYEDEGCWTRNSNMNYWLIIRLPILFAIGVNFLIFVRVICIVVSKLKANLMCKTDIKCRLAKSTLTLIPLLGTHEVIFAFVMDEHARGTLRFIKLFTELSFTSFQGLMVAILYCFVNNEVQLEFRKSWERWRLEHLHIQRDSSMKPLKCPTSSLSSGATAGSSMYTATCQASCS

A half-life [1] of 59.2 h was found for `CC[C@H](C)[C@H](NC(=O)[C@H](Cc1ccccc1)NC(=O)[C@H](CC(=O)O)NC(=O)[C@H](CCCNC(=N)N)NC(=O)[C@H](C)NC(=O)[C@H](C)NC(=O)[C@H](CCC(N)=O)NC(=O)[C@H](CCCCNC(=O)COCCOCCOCCNC(=O)CC[C@H](NC(=O)CCCCCCCCCCCCCCCCC(=O)O)C(=O)O)NC(=O)[C@H](CC(=O)O)NC(=O)[C@H](CC(C)C)NC(=O)[C@@H](NC(=O)[C@@H](NC(=O)[C@H](C)NC(=O)[C@H](CC(C)C)NC(=O)[C@H](CCC(=O)O)NC(=O)[C@H](CO)NC(=O)[C@@H](NC(=O)[C@H](Cc1ccccc1)NC(=O)[C@H](CO)NC(=O)CNC(=O)[C@H](CCC(=O)O)NC(=O)C(C)(C)NC(=O)[C@@H](N)Cc1c[nH]cn1)[C@@H](C)O)[C@@H](C)O)[C@@H](C)CC)C(=O)N[C@@H](C)C(=O)N[C@@H](Cc1c[nH]c2ccccc12)C(=O)N[C@@H](CC(C)C)C(=O)N[C@H](C(=O)N[C@@H](CCC(N)=O)C(=O)N[C@@H](Cc1c[nH]cn1)C(=O)N[C@@H](CCCCN)C(=O)N[C@H](C(=O)N[C@H](C(=O)N[C@@H](CC(=O)O)C(N)=O)[C@@H](C)O)[C@@H](C)CC)[C@@H](C)CC` [Compound 4, His-Aib-Glu-Gly-Ser-Phe-Thr-Ser-Glu-Leu-Ala-Thr-Ile-Leu-Asp-Lys(PEG3CH2CO-γGlu-octadecanedioic acid)-Gln-Ala-Ala-Arg-Asp-Phe-Ile-Ala-Trp-Leu-Ile-Gln-His-Lys-Ile-Thr-Asp-NH2] (H-H[Aib]EGSFTSELATILDK([AEEEA-γGlu-C18 diacid])QAARDFIAWLIQHKITD-NH2; N-terminus assumed) in this work.
An EC50 [2] of 4.7 nM and an EC50 [3] of 0.0601 nM were found for `CC[C@H](C)[C@H](NC(=O)[C@H](Cc1ccccc1)NC(=O)[C@H](CC(=O)O)NC(=O)[C@H](CCCNC(=N)N)NC(=O)[C@H](C)NC(=O)[C@H](C)NC(=O)[C@H](CCC(N)=O)NC(=O)[C@H](CCCCNC(=O)COCCOCCNC(=O)CC[C@H](NC(=O)CCCCCCCCCCCCCCCCC(=O)O)C(=O)O)NC(=O)[C@H](CC(=O)O)NC(=O)[C@H](CC(C)C)NC(=O)[C@@H](NC(=O)[C@@H](NC(=O)[C@H](C)NC(=O)[C@H](CC(C)C)NC(=O)[C@H](CCC(=O)O)NC(=O)[C@H](CO)NC(=O)[C@@H](NC(=O)[C@H](Cc1ccccc1)NC(=O)[C@H](CO)NC(=O)CNC(=O)[C@H](CCC(=O)O)NC(=O)C(C)(C)NC(=O)[C@@H](N)Cc1c[nH]cn1)[C@@H](C)O)[C@@H](C)O)[C@@H](C)CC)C(=O)N[C@@H](C)C(=O)N[C@@H](Cc1c[nH]c2ccccc12)C(=O)N[C@@H](CC(C)C)C(=O)N[C@H](C(=O)N[C@@H](CCC(N)=O)C(=O)N[C@@H](Cc1c[nH]cn1)C(=O)N[C@@H](CCCCN)C(=O)N[C@H](C(=O)N[C@H](C(=O)N[C@@H](CC(=O)O)C(N)=O)[C@@H](C)O)[C@@H](C)CC)[C@@H](C)CC` [Compound 3, His-Aib-Glu-Gly-Ser-Phe-Thr-Ser-Glu-Leu-Ala-Thr-Ile-Leu-Asp-Lys(AEEA-γGlu-octadecanedioic acid)-Gln-Ala-Ala-Arg-Asp-Phe-Ile-Ala-Trp-Leu-Ile-Gln-His-Lys-Ile-Thr-Asp-NH2] (H-H[Aib]EGSFTSELATILDK([AEEA-γGlu-C18 diacid])QAARDFIAWLIQHKITD-NH2) in this work.
